Data reported in patent US20220034873A1, “POLYMERIC CHROMOPHORES, COMPOSITIONS COMPRISING THE SAME, AND METHODS OF PREPARING AND USING THE SAME” (North Carolina State University, priority 2018, published 2022).
Each block holds one compound with its values, some of them ahead of it.

How the values were obtained:
[1] = Absorption and emission spectra of dyes D1-D3 and dye-loaded copolymers F1-F3; format: physicochemical
Description: Measurements of Absorption and Emission Spectra. The target dye-loaded copolymers F1-F3 were then subjected to investigations of their spectroscopic properties in both organic solvents and aqueous solution. […] Attaching to the 120-kDa amphiphilic copolymer drastically enhances the water solubility of BODIPY D1 and chlorin D2 without strong perturbation on the spectroscopic properties. The emission band for F1 and F2 in water remains the same as the ones measured in organic solutions, showing minimal dye-dye interaction is involved in aqueous solution of F1 and F2 at μM concentration. […] This negative result may be because of the inappropriate size of the copolymer backbone. Larger polymers may be required to encapsulate large hydrophobic chromophores like the phthalocyanine D3.
General Methods. All chemicals obtained commercially were used as received unless otherwise noted. Reagent-grade solvents (CH2Cl2, THF, methanol) and HPLC-grade water were used as received. NMR data was measured in a solution of CDCl3 unless otherwise noted. Noncommercial compounds 1, 2, and 4 were prepared following literature procedures. Analytical SEC experiments were performed with PLgel 10000 Å SEC column, eluted with ACS grade THF (stablized with 400 ppm of BHT) at 35° C. with a flow rate at 1 mL/min. Samples were detected with Agilent 1260 infinity refractive index detector. Absorption spectra were measured on Agilent 8453 and Shimadzu UV1800 instruments using dilute […] solutions of the compound in UV transparent (e.g., quartz) cuvettes versus a solvent blank at room temperature.

[2] = cited from earlier work

- λabs max ([1]; in CH2Cl2, room temperature): 543 nm
Structure (SMILES): Cc1cc(C)c(C2=C3C=CC=[N+]3[B-](F)(F)n3cc(C#CCCCCC(=O)NN)cc32)c(C)c1 [Polymer D1, 2-[6-(N-Aminocarbamoyl)hex-1-yn-1-yl]-8-mesityl-4,4-difluoro-4-bora-3a,4a-diaza-s-indacene]

- λabs max ([1]; in CH2Cl2, room temperature): 640 nm
Structure (SMILES): Cc1cc(C)c(-c2c3nc(c(-c4ccc(C(=O)NN)cc4)c4ccc(cc5nc(cc6ccc2[nH]6)CC5(C)C)[nH]4)C=C3)c(C)c1 [Polymer D2, 5-[4-(N-Aminocarbamoyl)phenyl]-10-Mesityl-18,18-dimethylchlorin]

- λabs max ([1]; in toluene): 702 nm
Structure (SMILES): CCCCCCCc1cc2c(cc1CCCCCCC)-c1nc-2nc2[nH]c(nc3nc(nc4[nH]c(n1)c1cc(CCCCCCC)c(CCCCCCC)cc41)-c1cc(C#Cc4ccc(CC(=O)NN)cc4)ccc1-3)c1cc(CCCCCCC)c(CCCCCCC)cc21 [Polymer D3, 2-[4-(N-Aminocarbamoyl)methylphenylethynyl]-9,10,16,17,23,24-hexaheptylphthalocyanine]

Structure (SMILES): CCN(CC)c1ccc2c(c1)Oc1cc(N(CC)CC)ccc1C21c2ccccc2C(=O)N1N [Rhodamine-B hydrazide]
- change in absorption or fluorescence spectra ([2]; only with Cu(II) and Hg(II) among the cations tested, aqueous solution): significant change in absorption or fluorescence spectra
- Cu(II) concentration detected quantitatively ([2]; selective detection of Cu(II) in aqueous solution): 10^−7 M
